Test results as given in ChEMBL document CHEMBL5620352, “Discovery of highly potent and selective VEGFR2 kinase inhibitors for the treatment of rheumatoid arthritis” (Eur J Med Chem, 2023).

Key:
Type in all cases: ADME, organism-based
[1] = AUC(0 to infinity) in Sprague-Dawley rat at 1 mg/kg, iv measured upto 24 hrs by LC-MS/MS analysis; details: in vivo
[2] = AUC(0 to infinity) in Sprague-Dawley rat at 10 mg/kg, po measured upto 24 hrs by LC-MS/MS analysis; details: in vivo
[3] = Cmax in Sprague-Dawley rat at 1 mg/kg, iv measured upto 24 hrs by LC-MS/MS analysis; details: in vivo
[4] = Cmax in Sprague-Dawley rat at 10 mg/kg, po measured upto 24 hrs by LC-MS/MS analysis; details: in vivo
[5] = Half life in Sprague-Dawley rat at 1 mg/kg, iv measured upto 24 hrs by LC-MS/MS analysis; details: in vivo
[6] = Half life in Sprague-Dawley rat at 10 mg/kg, po measured upto 24 hrs by LC-MS/MS analysis; details: in vivo
[7] = Apparent volume of distribution in Sprague-Dawley rat at 1 mg/kg, iv measured upto 24 hrs by LC-MS/MS analysis; details: in vivo, read-out: Vz
[8] = Apparent volume of distribution in Sprague-Dawley rat at 10 mg/kg, po measured upto 24 hrs by LC-MS/MS analysis; details: in vivo
[9] = Apparent clearance in Sprague-Dawley rat at 1 mg/kg, iv measured upto 24 hrs by LC-MS/MS analysis; details: in vivo, read-out: CL(app) (converted)
[10] = Apparent clearance in Sprague-Dawley rat at 10 mg/kg, po measured upto 24 hrs by LC-MS/MS analysis; details: in vivo, read-out: CL(app) (converted)
[11] = Oral bioavailability in Sprague-Dawley rat at 10 mg/kg measured upto 24 hrs by LC-MS/MS analysis; details: in vivo

Question: What does the source list for `COc1cccc(C(=O)Nc2cccc(Sc3ccc4c(NC(C)=O)n[nH]c4c3)c2)c1`?
Answer: AUC(0-inf) [1]: 175 ng·h/mL; AUC(0-inf) [2]: 274 ng·h/mL; Cmax [3]: 689 ng/mL; Cmax [4]: 113 ng/mL; half-life [5]: 16.8 min; half-life [6]: 47.4 min; Vd [7]: 2.16 L/kg; Vz [8]: 39.752 L/kg; clearance [9]: 96 mL/min/kg; CL/F [10]: 657 mL/min/kg; bioavailability [11]: 15%
